Results: US10953027B2, “Active agents and methods of their use for the treatment of metabolic disorders and nonalcoholic fatty liver disease” (Flagship Pioneering Innovations V, Inc., priority 2018, dated 2021)

Legend:
[1] = Assay 1. Stability in Simulated Gastric Fluid (SGF); type: in vitro ADME; settings: 1 μM, 37° C., SGF pH 1.6 with pepsin
Summary of the method: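 Simulated gastric fluid, prepared fresh as NaCl buffer at pH 1.6 with 0.1 mg/mL pepsin and FaSSIF powder, received test compound to 1 μM final and was held at 37 °C. LC/MS of acetonitrile-quenched samples, taken immediately and then periodically, gave degradation rates.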

HFD-fed C57BL/6 mice = assay: In vivo evaluation in HFD-fed C57BL/6 mice (Example 3); settings: 6% in HFD ad libitum, 8 week
Protocol: Animals were allowed free access to food and drinking water for the entire 8 week study. Animals were weighed on a weekly basis, and food and drinking water consumption monitored. Plasma and stool samples were collected at the beginning of the study, mid-study, and day of termination. These samples were used for the measurement of the disease makers.
Disease markers were also assessed in liver tissues collected from mice as follows. Liver tissues from mice were collected, fixed by immersion in 10% neutral buffered formalin. Fixed tissue specimens were sent to a histological processing laboratory (Premier Laboratory, Longmont, Colo.), where they were paraffin embedded, sectioned (approximately 4 μm), mounted, and stained with hematoxylin and eosin (H&E) using standard methods.
Liver sections (2) for each animal were scored from a scan of the H&E-stained slide for inflammation, steatosis (macrovesicular vacuolation) and ballooning ([…] vacuolation) using a modified grading scale based on human biopsy scoring (Brunt et al., Am J Clin Pathol, 128:837-47, 2007). Inflammation was scored 0=no inflammation, 1=minimal (1-3 foci of scattered (lobar) inflammatory cells), 2=mild (3 to 10 scattered foci of inflammatory cells with or without portal/periportal inflammation), 3=moderate (>10 scattered (lobar) foci of inflammatory cells and/or marked portal/periportal inflammation. Steatosis was graded (as in Brunt et al., Am J Clin Pathol, 128:837-47, 2007) as follows: 0=no steatosis, grade 1: ≤33%; grade 2: >33%, <66%; 3: ≥66%. Ballooning was scored as follows: 0=no ballooning, 1=rare/few, and 2=many hepatocytes with microvesicular vacuolation.

Male FATZO mice = assay: In vivo FATZO DM2/obesity study (Example 5); settings: in HFD ad libitum, after 28 days; blood glucose 0-120 minutes
Protocol: Male FATZO mice (Crown Bio) of 11-12 weeks old were selected for Diabetes Mellitus Type 2 (DM2) and obesity study. Mice were randomized into 9 groups based on body weight and blood glucose level as shown below. Compounds were administered in high fat diet (HFD: D12492) and provided to mice ad libitum until study termination. Body weight was recorded at the baseline and then twice weekly thereafter. Blood glucose level was measured at 0, 15, 30, 60, 90, and 120 minutes at the end of the study.

[2] = Assay 2. Stability in Simulated Intestinal Fluid (SIF); type: in vitro ADME; settings: 1 μM, 37° C., SIF pH 6.7 with pancreatin
Summary of the method: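 Degradation rate measured by LC/MS after acetonitrile quench of timed aliquots, starting at T0. Test compound 1 μM in simulated intestinal fluid (pH 6.7 phosphate buffer, FaSSIF powder, pancreatin), shaken at 37 °C.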

[3] = Assay 3. Fecal Incubation Stability; type: in vitro ADME; settings: 1 or 10 μM, human fecal slurry, anaerobic

Row | Compound | Assay 1 (SGF) (% Remaining @ 1 hours) [1] | ballooning score (FIG. 4) (HFD-fed C57BL/6 mice) | glucose tolerance (FIG. 2) (HFD-fed C57BL/6 mice) | histological analysis of the livers: steatosis (FIGS. 5A-5G) (HFD-fed C57BL/6 mice) | percentage change in weight (FIG. 1) (HFD-fed C57BL/6 mice) | steatosis score (FIG. 3) (HFD-fed C57BL/6 mice) | OGTT (AUC) (Male FATZO mice) | Assay 2 (SIF) (% @ Remaining 4 hours) [2] | Assay 3 (% Remaining at 24 h) [3]
1 | CC(=O)Oc1cc(OC(C)=O)c2c(c1)O[C@H](c1cc(OC(C)=O)c(OC(C)=O)c(OC(C)=O)c1)[C@H](OC(=O)c1cc(OC(C)=O)c(OC(C)=O)c(OC(C)=O)c1)C2 [Compound 4, [(2R,3R)-5,7-diacetoxy-2-(3,4,5-triacetoxyphenyl)chroman-3-yl] 3,4,5-triacetoxybenzoate] | C (C: >75% of the tested compound remaining) | lower ballooning score than the animals fed a high fat diet only | exceeded that of animals in the HFD+rosiglitazone | significantly lower steatosis | underwent weight loss | lower steatosis score than the animals fed high fat diet only | 59443 | A (A: <25% of the tested compound remaining) | A (A: <25% of the tested compound remaining)
2 | CC(=O)Oc1cc(OC(C)=O)c2c(=O)c(OC(C)=O)c(-c3ccc(OC(C)=O)c(OC(C)=O)c3)oc2c1 [Compound 14, [2-acetoxy-4-(3,5,7-triacetoxy-4-oxo-chromen-2-yl)phenyl] acetate] | C (C: >75% of the tested compound remaining) | – | – | – | – | – | 65323 | A (A: <25% of the tested compound remaining) | –
3 | CC(=O)O[C@H]1OC[C@H](OC(C)=O)[C@H](OC(C)=O)[C@H]1OC(C)=O [Compound 53, (2R,3R,4S,5S)-tetrahydro-2H-pyran-2,3,4,5-tetrayl Tetraacetate] | C (C: >75% of the tested compound remaining) | – | – | – | – | – | – | A (A: <25% of the tested compound remaining) | A (A: <25% of the tested compound remaining)
